According to BigSolDB 2.1:

O=c1[nH]c(=O)n(C2CCCO2)cc1F (centres undefined)
solubility (mole fraction)
Conditions	273.15 K	278.15 K	283.15 K	288.15 K	293.15 K	298.15 K	303.15 K	308.15 K	313.15 K
in acetone	0.00932	0.0115	0.014	0.0168	0.0196	0.0233	0.0277	0.0326	0.0388
in ethanol	0.00118	0.00152	0.00198	0.00253	0.00318	0.00402	0.00506	0.00629	0.00767
in ethyl acetate	0.00607	0.00718	0.00837	0.00957	0.0109	0.0122	0.0137	0.0153	0.0175
in isopropanol	0.00086	0.00109	0.00139	0.00179	0.00227	0.00286	0.00358	0.00444	0.00547
in methanol	0.00362	0.00428	0.00495	0.00592	0.00692	0.00802	0.00925	0.0107	0.0126
in n-propanol	0.00112	0.00141	0.00176	0.00223	0.00274	0.00343	0.0042	0.00516	0.00618
